# Experimental data: US9594047B2, “Potentiometric sensors and method for measuring intermolecular interactions” (Universiteit Antwerpen, priority 2013, dated 2017)
# Tests used:
# [1] = Potentiometric sensorgram of an oligonucleotide analyte; conditions: 10^−5 M injection
# Description: Coating materials such as gelatin are easily doped by proteins [see De Wael, K.; De Belder, S.; Van Vlierberghe, S.; Van Steenberge, G.; Dubruel, P. Talanta 82 (2010) 1980-1985] antibodies, bioparticles (viruses, bacteria, . . . ), DNA, and aptamers. Large biomolecules can be used as analyte (prey ligand) (second molecular species). From experience with oligonucleotides [Nagels, L. J.; Everaert, J.; Bohets, H.; Del Favero, J.; Goossens, D.; Robbens, J.; Pietraszkiewicz, M.; Pietraszkiewicz, O., Comb. Chem. High Throughput Screening 10 (2007) 555-559] it is known that these multiply charged molecules give very good potentiometric responses. For example, the 22-mer 5′-[…]-3′ yields a slope (S, equations 2 and 3) value of 38 mV per decade, which is much higher than that calculated by the Nernst equation (equation 2). This is due to the fact that equation 2 was derived for point charges, while an oligonucleotide is a multiply charged rodlike molecule. It is detected three times more sensitively (on a molar basis) than a small, well-responding anionic molecule such as maleic acid. […] This means that the described method can also be used to measure DNA/DNA interactions. Potentiometry also allows working with miniaturized electrode arrays (eventually with ion-sensitive field-effect transistor (ISFET) readout), which means that high-throughput measurements can be considered.
# [2] = target: DA-specific aptamer; conditions: read-out: Kdiss determined colorimetrically; Zheng (2011); cited from earlier work
# [3] = tested on: Gelatin B; test: Potentiometric FIA response on gelatin B-coated electrode without aptamer (negative control sensor); assay type: binding; conditions: for Rmax response in mV: 10^−5M injection, coating Gelatin B
# Method: (§1) A R=10^mV/S−1 conversion was then plotted (see equation 4). […] Four electrodes were tested, each 3 injections.
# [4] = tested on: DA-specific aptamer (58 mer); test: Potentiometric FIA sensorgram, gelatin B sensor with covalently linked DA-specific aptamer; assay type: binding; conditions: for Rmax response in mV: 10^−5M injection, coating Gelatin B + DA-specific aptamer; for change in sensitivity (Rmax) when aptamer is coupled to gelatin B: with versus without aptamer
# Description: (§2) [formula] Starting from the “association” part of the sensorgram, one can now plot dR/dt versus R. For a pseudo-first-order kinetics, this will yield a straight line with slope equal to slope=−(koncanalyte+koff) (12) Plotting this slope versus canalyte then yields a graph from which kon and koff can be calculated.
# (§3) From kon and koff, Kassoc=kon/koff is obtained, from which Kdiss (=1/Kassoc) and the Gibbs free energy of interaction can be calculated (ΔG^0=−RT ln Kass). Kdiss is most frequently used term to express intermolecular interactions. This type of analysis was done for different electrode/analyte combinations. Examples were chosen so as to include examples where the immobilized component (in the coating layer of the sensor) includes large biomolecules (DNA).
# (§4) The flow injection analysis (FIA) recordings were performed using an LC-10ADvp pump (Shimadzu Liquid Chromatography) and a Rheodyne 7125 six-port external sample injector (VICI, Houston, Tex.). A 1.00 mL sample loop was used to generate square concentration pulses for sensorgram recording in FIA conditions. […] The flow rate was 1.00 mL min^−1. Poiseuille peak broadening effects were kept to a minimum using short injector-detector connections (150 mm). To avoid such effects at the end of the square concentration pulse, the injector was switched from inject to load after 40 s (well before the sample loop volume was totally emptied).
# The well-known ethyl-dimethyl-aminopropylcarbodiimide and n-hydroxy-succinimide (EDC-NHS) coupling procedure was used (with minor modifications) to bind the aminated aptamer covalently to the hydrogel, which contains carboxyl groups. After adding 20 μL of the coupling agents (15.32 mg of EDC and 2.32 mg of NHS dissolved in 100 μl of 10.0 mM MES buffer at pH 7.0) to the coated hydrogel for 2 h, 2×4 μL of the aptamer (10^−4M) was applied for 1 h. After evaporation for 2 h, at 4° C. the electrodes were kept in 10.0 mM MES running buffer, pH 7.0.
# All chemicals were of analytical reagent grade. The FIA eluents were prepared daily by the dilution of a concentrated phosphoric acid solution or by dissolving HEPES, both obtained from Acros Organics (Filter Service NV, Eupen, Belgium). High-molecular-mass PVC was obtained from Janssen Chimica (Beerse, Belgium). The other membrane components were of the highest quality grade available from Fluka (Sigma-Aldrich, Bornem, Belgium). These include plasticizer TCPB, DOS, and the solvent tetrahydrofuran (THF). Type gelatin A (IEP (isoelectric point)=8.8, bloom strength 202), isolated from porcine skin by acid treatment, was obtained from Tessenderlo Chemie (Belgium). Promazine, lidocaine and tartaric acid were obtained from Sigma-Aldrich.
# After checking the coupling of the aptamer to the biopolymer as described above, the electrodes were placed in a FIA potentiometric setup.
# as §1
# [5] = Potentiometric FIA sensorgram, linearization method, rubber phase (PVC) coated sensor; assay type: binding; conditions: for koff: from plot of slope versus canalyte (on phase kinetics); for kon: from plot of slope versus canalyte, eluent 5.0 mM H3PO4 pH 2.4
# Description: The model is based on the assumption that the rate determining phenomenon is the adsorption of analyte A (second molecular species) to the surface receptor sites Rsurface: A+Rsurface⇄ARsurface (5) Receptor sites are occupied by the analyte are designated as Roccupied. The rate of adsorption can be expressed as νon: […]
# Differential equation 6 can be solved to yield equations 8 and 10. In these equations, Roccupied is replaced by R, the concentration-related response (10^mV/S−1), as both are linearly related (see above). Rmax is the value of R which is obtained at the plateau of the sensorgram: R(t)=Rmax(1−e^−k^obsd^t) (8) where kobsd=[…] (9) Equation 7 yields the well-known first-order exponential desorption formula: R(t)=Rmaxe^−k^off^t (10)
# as §2, §3, §4
# The eluent was 5.0 mM H3PO4 (pH 2.4) for the poly(vinyl chloride) (PVC)-based electrodes and 0.5 mM 4-(2-hydroxyethyl)-1-piperazine-ethanesulfonic acid (HEPES; pH 6.0) for the hydrogel electrodes (see the section “Potentiometric Electrode”). The column outlet was directed perpendicularly toward the sensitive membrane of the coated wire electrode in a “wall-jet” flow cell [see FIG. 1 and Bazylak, G.; Nagels, L. J. J. Pharm. Biomed. Anal. 32 (2003) 887-903]. The distance from the LC tubing outlet to the electrode was 0.100 mm unless otherwise stated.
# The membrane potential was measured against an Orion 800500 Ross reference electrode (Ag/AgCl) using a high impedance (10^13Ω) home-made amplifier. The detection signals were recorded on a data station composed of a PC equipped with a 6013 NI DA converter and LabVIEW 7 (National Instruments, Austin, Tex.) based software. The overall RC time constant of the high-impedance amplifier plus data station was set to 0.200 s.
# Electrodes with a composite substrate have the important property that the membrane coating and the composite are tightly mixed at the interface, and sensors constructed in this way show very good impedance characteristics (see Nagels, L; Bohets, H.; Jimidar, M. U.S. Pat. No. 7,857,962 B2). These characteristics were verified using impedance spectroscopy. The measurements were performed with an Autolab Metrohm PGSTAT 128N FRA instrument (frequency 1-100 kHz, amplitude 10 mV). A semicircle in the Nyquist plot was obtained if the electrode had good impedance characteristics. Discussions on such characteristics of potentiometric sensors are well described in Mattinen, U.; Rabiej, S.; Lewenstam, A.; Bobacka, J. Electrochim. Acta 56 (2011) 10683-10687; and Bobacka, J.; Ivaska, A.; Lewenstam, A. Chem. Rev. 108 (2008) 329-351. […]
# [6] = cited from earlier work
# [7] = tested on: gelatin A coating (collagen material); test: Potentiometric FIA sensorgram, linearization method, gelatin A-coated sensor; assay type: binding, porcine
# Description: as §2, §3
# as §4, with “To avoid such effects at the end of the square concentration pulse, the injector was switched from inject to load after 40 s (well before the sample loop volume was totally emptied).” left out
Compound,Rmax response in mV [3] [mV],Rmax response in mV [4] [mV],change in sensitivity (Rmax) when aptamer is coupled to gelatin B [4],Kassoc=kon/koff [5] [M⁻¹],koff [5] [s⁻¹],kon [5] [M⁻¹ s⁻¹],sensitivity of gelatin B based sensors [3],also measured
5′-AAAATATCATCTTTGGTGTTTC-3′ (chemistry not given here) [22-mer oligonucleotide used as analyte],–,–,–,–,–,–,–,koff ([1]; off phase): 0.032 s⁻¹; kobsd ([1]; on phase): 0.055 s⁻¹
"NCCc1ccc(O)c(O)c1 [Dopamine, dopamine]",9.46,92.86,very clear increase in Rmax,–,–,–,–,"Kd [2]: 700 nM; Kass [4]: 3.04e+07 M⁻¹; koff [4]: 0.0007 s⁻¹; kon [4]: 21200 M⁻¹ s⁻¹; signal (Rmax) with aptamer-containing electrodes versus electrodes without aptamer ([4]; four electrodes, each 3 injections): From five to ten times higher signals; Kd ([4]; mean of four electrodes, read-out: mean value of Kdiss): 1310 nM"
"CCN(CC)CC(=O)Nc1c(C)cccc1C [Lidocaine, lidocaine]",2.88,1.57,no improvement in sensitivity,275000,0.0717,19700,quite insensitive,"average value of koff ([5]; off phase, all curves at different concentrations): 0.0748 s⁻¹"
CN(C)CCCN1c2ccccc2Sc2ccccc21 [Promazine],3.66,2.44,no improvement in sensitivity,2.74e+06,0.0365,100000,quite insensitive,log P [6]: 4.36
"CC(NCCc1ccc(O)cc1)C(O)c1ccc(O)cc1 (stereo not drawn) [Ritodrine, ritodrine]",1.83,1.57,no improvement in sensitivity,–,–,–,quite insensitive,–
O=C(O)C(O)C(O)C(=O)O (stereo not drawn) [tartaric acid],–,–,–,–,–,–,–,"koff [7]: 0.0472 s⁻¹; kon ([7]; from plot of slope versus canalyte, 0.5 mM HEPES pH 6.0): 66700 M⁻¹ s⁻¹"
